Data set [1] in a line: Log P value at pH 7.4. The settings on record: buffer. Format: physicochemical.
The species entered for data set [2] is Mus musculus. The data set can be described thus: Ataxia assessment was made immediately prior to NMDA injection using a rotarod measurement. Format: functional.
Data set [3] relates to Mus musculus. Briefly: In vivo NMDA antagonism of compound was assessed for its ability to prevent lethality in mice due to injection of NMDA. The data set is classed as functional.
The next data set concerns the target Glutamate NMDA receptor. Briefly: Inhibitory concentration of compound required to displace [3H]TCP 1-[ 1-(2-thienyl)cyclohexyl]piperidine in whole rat brain homogenate.
Data set [4] deals with Mus musculus. Briefly: In vivo NMDA antagonism of compound was assessed for its ability to prevent lethality in mice due to injection of NMDA. The data set is classed as functional.

pIC50: −log10 of the molar value.

Broadly, the logD is the decadic logarithm of the distribution of all forms, ionised or not, between an organic phase and buffer at a given pH. A lower logD goes with lower lipophilicity. The ED50 is the dose that gives a 50% effect, or the effect in half of the subjects. A higher ED50 goes with weaker potency. As a reminder, the pIC50 is the negative decadic logarithm of the IC50, by convention in mol/L. With `CN1C[C@@H]2Cc3ccccc3[C@]13CCCC[C@@H]23`, in data set [1], the logD was determined as 0.94. Moreover, the ED50 was 3 mg/kg in the data set filed under Mus musculus [2] and 1.8 mg/kg with Mus musculus [3]. Moreover, the negative-log IC50 (pIC50) at Glutamate NMDA receptor was 6.86.
As for `CN[C@]12CCCC[C@H]1CCc1ccccc12`, the log distribution coefficient (logD) in data set [1] worked out at 1.1. In addition, the figures for the ED50 in the data set filed under Mus musculus [2] and with Mus musculus [4] were 0.44 mg/kg and 0.54 mg/kg, respectively. The pIC50 at Glutamate NMDA receptor was 7.83.
In data set [1], `CN1CC[C@]23CCCC[C@@]12c1ccccc1CC3` had a logD of 0.53. The 50% effective dose (ED50) in the data set filed under Mus musculus [2] came out at 0.3 mg/kg; in the data set with Mus musculus [4], 0.72 mg/kg. The compound also had a pIC50 at Glutamate NMDA receptor of 7.77.
Regarding `c1ccc2c(c1)C[C@H]1CN[C@@]23CCCC[C@@H]13`, the logD in data set [1] is -0.1. Further, the ED50 in the data set listed under Mus musculus [2] was found to be 3.2 mg/kg; with Mus musculus [4], 3.5 mg/kg. Moreover, the pIC50 at Glutamate NMDA receptor was 7.07.
Regarding `c1ccc2c(c1)CC[C@@]13CCCC[C@]21NCC3`, the results for the 50% effective dose (ED50) in the data set filed under Mus musculus [2] and in the data set with Mus musculus [3] were 3.2 mg/kg and 3.5 mg/kg, respectively. On Glutamate NMDA receptor, this compound showed a negative logarithm of the IC50 (pIC50) of 6.82.
`C[C@]12N[C@H](Cc3ccccc31)c1ccccc12` [DIZOCILPINE] showed a log distribution coefficient (logD) in data set [1] of 2.1. Besides, the ED50 in the data set filed under Mus musculus [2] turned out to be 0.1 mg/kg; in the data set on Mus musculus [4] it was 0.34 mg/kg.

Source of the values: ChEMBL document CHEMBL1152111, “Synthesis and biological activity of conformationally constrained 4a-phenanthreneamine derivatives as noncompetitive NMDA antagonists” (Bioorg Med Chem Lett, 1993).
